Source: patent publication US20240116985A1, “STAPLED PEPTIDES AND METHODS THEREOF” (priority 2020, published 2024)
pIC50: −log10 of the molar value. Where two headings read alike, the source gives them in different places.

Experiments:
[1] = target: T1, beta-catenin/TCF4 engagement (Homo sapiens, UniProt P35222); assay: Nano-BRET target engagement assay (B-cat-Halo & TCF4-Luc in HEK293 cells); type: cell-based; details: read-out: NanoBRET Abs IC50
T1 construct: expressed in transfected cells; host or cells: HEK293
T1 sequence (P35222 1-781): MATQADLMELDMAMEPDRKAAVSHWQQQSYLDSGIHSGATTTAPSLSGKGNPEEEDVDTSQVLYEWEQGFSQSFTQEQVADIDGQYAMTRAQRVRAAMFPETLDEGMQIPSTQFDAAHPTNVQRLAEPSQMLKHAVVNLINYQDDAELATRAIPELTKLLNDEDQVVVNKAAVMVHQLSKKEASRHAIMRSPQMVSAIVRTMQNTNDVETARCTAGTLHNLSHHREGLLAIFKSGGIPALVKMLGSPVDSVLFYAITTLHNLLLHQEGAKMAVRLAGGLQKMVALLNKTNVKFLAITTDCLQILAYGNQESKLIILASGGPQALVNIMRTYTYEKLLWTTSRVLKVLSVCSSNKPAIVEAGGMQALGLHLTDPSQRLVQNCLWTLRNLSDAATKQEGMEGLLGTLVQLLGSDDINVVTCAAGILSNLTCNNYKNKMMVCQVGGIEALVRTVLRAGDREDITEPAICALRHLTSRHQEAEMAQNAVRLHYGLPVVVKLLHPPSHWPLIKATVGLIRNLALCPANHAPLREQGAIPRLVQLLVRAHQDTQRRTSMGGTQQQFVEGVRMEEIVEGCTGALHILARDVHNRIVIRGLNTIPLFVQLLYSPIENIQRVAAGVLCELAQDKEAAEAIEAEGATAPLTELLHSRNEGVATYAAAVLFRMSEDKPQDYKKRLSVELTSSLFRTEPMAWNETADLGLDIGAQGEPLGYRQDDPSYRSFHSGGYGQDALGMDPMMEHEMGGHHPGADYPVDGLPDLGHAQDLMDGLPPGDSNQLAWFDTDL

[2] = target: T2, full-length beta-Catenin (Uniprot ID P35222) (Homo sapiens, UniProt P35222); assay: Fluorescence polarization IC50 (beta-catenin / 5FAM-TCF4 10-53 competition); type: binding; details: fluorescence polarization
T2 construct: 10 nM full-length beta-Catenin (Uniprot ID P35222)
T2 sequence (P35222 1-781): T1 sequence (P35222 1-781)

CC(=O)N1CCC[C@]12CC=CCCCC1(CCCC=CCCCCCC[C@@](C)(C(=O)N[C@@H](Cc3ccsc3)C(=O)N[C@@H](Cc3csc4ccccc34)C(=O)N[C@@H](CCC(N)=O)C(N)=O)NC(=O)[C@H](CC(N)=O)NC(=O)[C@H](Cc3ccccc3)NC(=O)[C@H](C)NC(=O)[C@H](C)NC(=O)[C@H](CN(CCCC(F)(F)F)CC(=O)O)NC(=O)[C@H](CC(=O)O)NC1=O)NC(=O)[C@H](CC(C)(C)C)NC(=O)[C@H](CC(=O)O)NC2=O (stereo partly drawn) [I-1454, Ac-PL3-Asp-Npg-B5-Asp-[Tfb]GA-Ala-Ala-Phe-Asn-S8-3Thi-BztA-Gln-NH2]
pIC50 ([1]; absolute IC50): 4.57 | pIC50 ([2]; beta-catenin, read-out: FP EC50): 7.66 | pIC50 ([2]; read-out: beta-Catenin FP IC50): 7.66

CC(=O)N1CCC[C@]12CC=CCCCC1(CCCC=CCCCOC(=O)N3CC[C@@](C(=O)N[C@@H](Cc4ccccc4C(F)(F)F)C(=O)N[C@H](C(=O)N[C@@H](CCC(N)=O)C(N)=O)[C@H](C)c4csc5ccccc45)(C3)NC(=O)[C@H](CC(C)C)NC(=O)[C@H](Cc3ccccc3)NC(=O)[C@H](C)NC(=O)[C@H](C)NC(=O)[C@H](Cc3cccc(C(=O)O)c3)NC(=O)[C@H](CC(=O)O)NC1=O)NC(=O)[C@H](CC(C)(C)C)NC(=O)[C@H](CC(=O)O)NC2=O (stereo partly drawn) [I-2458, Ac-PL3-Asp-Npg-B5-Asp-3COOHF-Ala-Ala-Phe-Leu-PyrS2-2F3MeF-RbMeBztA-Gln-NH2]
pIC50 ([1]; absolute IC50): 5.23 | pIC50 ([2]; read-out: beta-Catenin FP IC50): 7.48

CC(=O)N1CCC[C@]12CC=CCCCC1(CCCC=CCCCOC(=O)N3CC[C@@](C(=O)N[C@@H](Cc4ccsc4)C(=O)N[C@@H](Cc4csc5ccccc45)C(=O)N[C@@H](CCC(N)=O)C(N)=O)(C3)NC(=O)[C@H](CCO)NC(=O)[C@H](Cc3cccc(C(=O)O)c3)NC(=O)[C@H](C)NC(=O)[C@H](C)NC(=O)[C@H](Cc3c[nH]cn3)NC(=O)[C@H](CC(=O)O)NC1=O)NC(=O)[C@H](CC(C)(C)C)NC(=O)[C@H](CC(=O)O)NC2=O (stereo partly drawn) [I-2120, Ac-PL3-Asp-Npg-B5-Asp-His-Ala-Ala-3COOHF-Hse-PyrS2-3Thi-BztA-Gln-NH2]
pIC50 [1]: 4.43 | pIC50 ([2]; read-out: beta-Catenin FP IC50): 7.96

CCCC[C@@H]1NC(=O)[C@H](Cc2ccccc2)NC(=O)[C@H](C)NC(=O)C(C)(C)NC(=O)[C@H](Cc2cccc(C(=O)O)c2)NC(=O)[C@H](CC(=O)O)NC(=O)C2(CCCC=CCCCOC(=O)N3CC[C@@](C(=O)N[C@@H](Cc4ccsc4)C(=O)N[C@@H](Cc4csc5ccccc45)C(=O)N[C@@H](CCC(=O)N4CCC(C(F)(F)F)CC4)C(N)=O)(C3)NC1=O)CCCC=CC[C@]1(CCCN1C(C)=O)C(=O)N[C@@H](CC(=O)O)C(=O)N[C@@H](CC(C)(C)C)C(=O)N2 (stereo partly drawn) [I-2557, Ac-PL3-Asp-Npg-B5-Asp-3COOHF-Aib-Ala-Phe-nLeu-PyrS2-3Thi-BztA-4F3CPip]GlnR-NH2]
pIC50 ([1]; absolute IC50): 4.71 | pIC50 ([2]; read-out: beta-Catenin FP IC50): 7.54

C[C@@H]1NC(=O)[C@H](C)NC(=O)[C@H](CC(=O)O)NC(=O)[C@H](CC(=O)O)NC(=O)C2(CCCC=CCCCOC(=O)N3CC[C@@](C(=O)N[C@@H](Cc4ccsc4)C(=O)N[C@@H](Cc4csc5ccccc45)C(=O)N[C@@H](CCC(N)=O)C(N)=O)(C3)NC(=O)[C@H](CC(N)=O)NC(=O)[C@H](Cc3ccccc3)NC1=O)CCCC=CCCC(=O)OC1CC(C(=O)N[C@@H](CC(=O)O)C(=O)N[C@@H](CC(C)(C)C)C(=O)N2)N(S(C)(=O)=O)C1 (stereo partly drawn) [I-1574, MeSO2-HypEs5-Asp-Npg-B5-Asp-Asp-Ala-Ala-Phe-Asn-PyrS2-3Thi-BztA-Gln-NH2]
pIC50 ([1]; absolute IC50): < 4.70 | pIC50 ([2]; read-out: beta-Catenin FP IC50): 7.82

CC(=O)N1CCC[C@]12CC=CCCCC1(CCCC=CCCCOC(=O)N3CC[C@@](C(=O)N[C@@H](Cc4ccsc4)C(=O)N[C@@H](Cc4cccc(Cl)c4)C(=O)N[C@@H](C)C(N)=O)(C3)NC(=O)[C@H](C(C)C)NC(=O)[C@H](Cc3ccccc3)NC(=O)[C@H](C)NC(=O)[C@H](CCC(N)=O)NC(=O)[C@H](Cc3cccc(C(=O)O)c3)NC(=O)[C@H](CC(=O)O)NC1=O)NC(=O)[C@H](CC(C)(C)C)NC(=O)[C@H](CC(=O)O)NC2=O (stereo partly drawn) [I-2225, Ac-PL3-Asp-Npg-B5-Asp-3COOHF-Gln-Ala-Phe-Val-PyrS2-3Thi-3C1F-Ala-NH2]
pIC50 ([1]; absolute IC50): 5.11 | pIC50 ([2]; read-out: beta-Catenin FP IC50): 7.89

CC(=O)N1CCC[C@]12CCCCC1(CCCCCCCOC(=O)N3CC[C@@](C(=O)N[C@@H](Cc4ccsc4)C(=O)N[C@@H](Cc4csc5ccccc45)C(=O)N[C@@H](CCC(N)=O)C(N)=O)(C3)NC(=O)[C@H](CC(C)C)NC(=O)[C@H](Cc3ccccc3)NC(=O)[C@H](C)NC(=O)[C@H](C)NC(=O)[C@H](CC(=O)O)NC(=O)[C@H](CC(=O)O)NC1=O)NC(=O)[C@H](CC(C)(C)C)NC(=O)[C@H](CC(=O)O)NC2=O (stereo partly drawn) [I-2161, Ac-PL3-Asp-Npg-B3-Asp-Asp-Ala-Ala-Phe-Leu-PyrS3-3Thi-BztA-Gln-NH2]
pIC50 [1]: < 4.70 | pIC50 ([2]; read-out: beta-Catenin FP IC50): 6.07

CC(=O)N1CCC[C@]12CC=CCCCC1(CCCC=CCCCOC(=O)N3CC[C@@](C(=O)N[C@@H](Cc4ccccc4C(F)(F)F)C(=O)N[C@@H](Cc4csc5ccccc45)C(=O)N[C@@H](C)C(N)=O)(C3)NC(=O)[C@H](CC(C)C)NC(=O)[C@H](Cc3ccccc3)NC(=O)[C@H](C)NC(=O)[C@H]([C@@H](C)O)NC(=O)[C@H](Cc3cccc(C(=O)O)c3)NC(=O)[C@H](CC(=O)O)NC1=O)NC(=O)[C@H](CC(C)(C)C)NC(=O)[C@H](CC(=O)O)NC2=O (stereo partly drawn) [I-2060, Ac-PL3-Asp-Npg-B5-Asp-3COOHF-Thr-Ala-Phe-Leu-PyrS2-2F3MeF-BztA-Ala-NH2]
pIC50 [1]: 5.02 | pIC50 ([2]; read-out: beta-Catenin FP IC50): 7.25

CC(=O)N1CCC[C@]12CC=CCCCC1(CCCC=CCCCOC(=O)N3CCC(C(=O)N[C@@H](Cc4ccccc4C(F)(F)F)C(=O)N[C@@H](Cc4csc5ccccc45)C(=O)N[C@@H](CCC(N)=O)C(N)=O)(CC3)NC(=O)[C@H](CC(C)C)NC(=O)[C@H](Cc3ccccc3)NC(=O)[C@H](C)NC(=O)[C@H](C)NC(=O)[C@H](Cc3cccc(C(=O)O)c3)NC(=O)[C@H](CC(=O)O)NC1=O)NC(=O)[C@H](CC(C)(C)C)NC(=O)[C@H](CC(=O)O)NC2=O (stereo partly drawn) [I-2581, Ac-PL3-Asp-Npg-B5-Asp-3COOHF-Ala-Ala-Phe-Leu-SPip2-2F3MeF-BztA-Gln-NH2]
pIC50 [1]: < 4.70 | pIC50 ([2]; read-out: beta-Catenin FP IC50): 6.69

CC(=O)N1CCC[C@]12CC=CCCCC1(CCCC=CCCCOC(=O)N3CC[C@@](C(=O)N[C@@H](Cc4ccsc4)C(=O)N[C@@H](Cc4csc5ccccc45)C(=O)N[C@@H](CCC(N)=O)C(N)=O)(C3)NC(=O)[C@H](CC(C)C)NC(=O)[C@H](Cc3ccccc3)NC(=O)[C@H](C)NC(=O)[C@H](C)NC(=O)[C@H](CCn3cc(CCC(=O)O)nn3)NC(=O)[C@H](CC(=O)O)NC1=O)NC(=O)[C@H](CC(C)(C)C)NC(=O)[C@H](CC(=O)O)NC2=O (stereo partly drawn) [I-2076, Ac-PL3-Asp-Npg-B5-Asp-[CH2CH2CO2H]TriAzDab-Ala-Ala-Phe-Leu-PyrS2-3Thi-BztA-Gln-NH2]
pIC50 [1]: 4.85 | pIC50 ([2]; read-out: beta-Catenin FP IC50): 7.80

CC(=O)N1CCC[C@]12CC=CCCCC1(CCCC=CCCCOC(=O)N3CC[C@@](C(=O)N[C@@H](Cc4ccccc4)C(=O)N[C@@H](Cc4csc5ccccc45)C(=O)N[C@@H](CC(=O)N4CCOCC4)C(N)=O)(C3)NC(=O)[C@H](CC(C)C)NC(=O)[C@H](Cc3ccccc3)NC(=O)[C@H](C)NC(=O)[C@H](CCCCNC(=O)CN3CCOCC3)NC(=O)[C@H](CCC(N)=O)NC(=O)[C@H](CC(=O)O)NC1=O)NC(=O)[C@H](CC1CCCCC1)NC(=O)[C@H](CC(N)=O)NC2=O (stereo partly drawn) [I-2527, Ac-PL3-Asn-Cha-B5-Asp-Gln-[MorphAc]Lys-Ala-Phe-Leu-PyrS2-Phe-BztA-MorphAsn-NH2]
pIC50 ([1]; absolute IC50): < 4.70 | pIC50 ([2]; read-out: beta-Catenin FP IC50): 6.58

CC(=O)N1CCC[C@]12CC=CCCCC1(CCCC=CCCCOC(=O)N3CC[C@@](C(=O)N[C@@H](Cc4ccsc4)C(=O)N[C@H](C(=O)N[C@@H](C)C(N)=O)[C@@H](C)c4ccc5ccccc5c4)(C3)NC(=O)[C@H](C(C)C)NC(=O)[C@H](Cc3ccccc3)NC(=O)[C@H](C)NC(=O)[C@H](CCC(N)=O)NC(=O)[C@H](Cc3cccc(C(=O)O)c3)NC(=O)[C@H](CC(=O)O)NC1=O)NC(=O)[C@H](CC(C)(C)C)NC(=O)[C@H](CC(=O)O)NC2=O (stereo partly drawn) [I-2314, Ac-PL3-Asp-Npg-B5-Asp-3COOHF-Gln-Ala-Phe-Val-PyrS2-3Thi-SbMe2NapA-Ala-NH2]
pIC50 ([1]; absolute IC50): < 4.70 | pIC50 ([2]; read-out: beta-Catenin FP IC50): 7.32

CC(=O)N1CCC[C@]12CC=CCCCC1(CCCC=CCCCOC(=O)N3CC[C@@](C(=O)N[C@@H](Cc4ccccc4C(F)(F)F)C(=O)N[C@H](C(=O)N[C@@H](C)C(N)=O)[C@H](C)c4ccc5ccccc5c4)(C3)NC(=O)[C@H](CC(C)C)NC(=O)[C@H](Cc3ccccc3)NC(=O)[C@H](C)NC(=O)[C@H](CCC(N)=O)NC(=O)[C@H](Cc3cccc(C(=O)O)c3)NC(=O)[C@H](CC(=O)O)NC1=O)NC(=O)[C@H](CC(C)(C)C)NC(=O)[C@H](CC(=O)O)NC2=O (stereo partly drawn) [I-2463, Ac-PL3-Asp-Npg-B5-Asp-3COOHF-Gln-Ala-Phe-Leu-PyrS2-2F3MeF-RbMe2NapA-Ala-NH2]
pIC50 ([1]; absolute IC50): 5.19 | pIC50 ([2]; read-out: beta-Catenin FP IC50): 7.33
